Laboratory results: patent US20150112425A1, “DELIVERY OF HIGHLY LIPOPHILIC AGENTS VIA MEDICAL DEVICES” (Abbott Laboratories, priority 2005, published 2015)
Read-outs that look alike come from different tables or passages of the source.

Legend:
[1] = Pharmacokinetics after single intravenous dose in cynomolgus monkey; assay type: in vivo; conditions: for t1/2: terminal elimination, single 2.5 mg/kg intravenous dose, blood; for Terminal elimination half-life compared to rapamycin: cynomolgus monkey, intravenous
[2] = system: human mixed lymphocyte reaction (MLR); assay: Human mixed lymphocyte reaction (MLR) assay; assay type: cell-based; conditions: read-out: Human MLR IC50 ± S.E.M.
[3] = Six-hour elution from PC1036-coated coupons (FIG. 10-13); assay type: physicochemical; conditions: for Amount released from coupon: after 6 hours, pH 7.4 PBS, 37° C.; for Amount remaining on coupon: six-hour elution
Method: Prior to any experimentation, coated stainless steel coupons were prepared. These coupons were 316 L electropolished stainless steel discs (10 mm diameter). This size was chosen because the surface area of one side of the coupon is similar to the surface area of a 15-mm open cell BiodivYsio stent. […]. The cleaning was a two-step process in which the coupons are sonicated for 3 minutes in dichloromethylene and 3 minutes in ethanol. The coupons were allowed to dry at room temperature. One side of the coupon was coated using a filtered 20-mg/mL solution of phosphoryl choline polymer PC1036 (product of Biocompatibles Ltd., Farnham, Surrey, UK) in ethanol. Twenty μL PC solution was placed onto the coupon using a gas tight glass syringe, ensuring that the entire surface was coated but not spilling over the sides of the coupon. The coupons were initially air dried and then cured at 70° C. for 16 hours. They were then sent for gamma irradiation at <25KGy. The resulting PC coating thickness was close to that of the stent and thick enough to accommodate the desired loaded drug dose, as graphically represented in FIG. 9A-B. FIG. 9A-B is a top and side view of a coated stainless steel coupon 30, having a PC-coating 20 on a electropolished stainless steel disc.
In these experiments, beneficial agents were loaded onto coupons and elution profiles examined. In general, the procedure is as follows. Twelve PC-coated coupons were loaded with each drug. The solutions of the drugs were usually 5.0 mg/mL in 100% ethanol and were filtered with a 0.45 μm filter prior to use.
The coupons were weighed before loading with the drug solution. To load 100 μg of drug, 20 μL of solution was placed (e.g., pipetted) on the center of the PC coated side of the coupon. The coupon was placed in a vial for 30 minutes with the lid closed to allow the drug to penetrate the coating. The lid was removed and the coupon was allowed to dry for an additional 90 minutes. To ensure that the coupon was completely dry, the coupon was weighed, and after 15 minutes the coupon was weighed a third time. When two weightings of the coupon were the same, the coupon was considered dry. The loaded, dry coupons were stored in a refrigerator protected from light.
For each drug, six coupons were used to evaluate the total amount of drug loaded by the above procedure. The coupons were immersed in 5 mL of 50% ethanol, 50% water solution and sonicated for 1 hour. The concentration of the drug in the extraction solution was analyzed by HPLC.
At the end of the elution experiments discussed below, the coupons were removed from the elution media and immersed in 5 mL of 50% ethanol, 50% water solution and sonicated for 1 hour. The concentration of the drug in these vials indicated the amount of the drug remaining in the coupons at the end of the elution experiments.
Six coated coupons of each drug were used for the elution experiments. The coupons were individually placed, coating side up, in small metal cups to hold the coupon and to allow movement to a new vial at each time point. The coupons were usually placed in a vial containing 10 mL of pH 7.4 phosphate buffered saline. The vials were stored in an orbital shaker, with horizontal shaking of 100 rpm, at 37° C. for at least 30 minutes before insertion of a coupon to allow the solution to equilibrate at the desired temperature. After the desired time had lapsed, the coupon holder was lifted and allowed to drain. It was then placed into a pre-warmed vial corresponding to the next time point. This procedure continued until the predetermined time had elapsed. At that point, the coupons went through a drug extraction step as outlined earlier. The amount of drug in the elution samples was determined by HPLC.

[4] = representative summary; cited from earlier work
[5] = Stability of dexamethasone on PC-coated stents in ETO sterilization (FIG. 16); assay type: physicochemical
[6] = Shake-flask aqueous solubility study of DES drugs (FIG. 20); conditions: for Aqueous solubility, rank order: amorphous DES drugs, dexamethasone crystalline
[7] = Transfer coefficient (P divided by S) of DES drugs (FIG. 21); assay type: physicochemical; conditions: P divided by equilibrium aqueous solubility S (μg/ml)
[8] = Shake-flask octanol/water partition coefficient study of DES drugs (FIG. 20); assay type: physicochemical
Method: “Solubility” is based on a standard measure used in medicinal chemistry. The octanol-water partition coefficient (P) is the ratio of distribution of a compound in a mixture of 1-octanol and H2O. Log P is the base 10 logarithm of the partition coefficient.
In the measurement of the partition coefficient (octanol/water), preliminary studies were conducted to determine the optimum drug concentration for each test, and the appropriate time for establishing the partition equilibrium. All experiments were carried out by two different analysts and on multiple drug lots.

[9] = Pig model, tissue and blood concentrations of zotarolimus eluted from ZoMaxx stents (FIG. 25); assay type: in vivo

40-epi-N-[2′-pyridone]-rapamycin [Example 2-pyridone]
t1/2 [1]: 2.8 h
IC50 [2]: 12.4 ± 5.3 nM

CO[C@H]1C[C@@H]2CC[C@@H](C)[C@@](O)(O2)C(=O)C(=O)N2CCCC[C@H]2C(=O)O[C@H]([C@H](C)C[C@@H]2CC[C@H](n3ncnn3)[C@H](OC)C2)CC(=O)[C@H](C)/C=C(\C)[C@@H](O)[C@@H](OC)C(=O)[C@H](C)C[C@H](C)/C=C/C=C/C=C/1C (single isomer, unassigned; less polar) [Example 1, 42-Epi-(tetrazolyl)-rapamycin (less polar isomer)]
Terminal elimination half-life compared to rapamycin [1]: substantially shorter

COC1CC2CCC(C)C(O)(O2)C(=O)C(=O)N2CCCCC2C(=O)OC(C(C)CC2CCC(n3cnnn3)C(OC)C2)CC(=O)C(C)C=C(C)C(O)C(OC)C(=O)C(C)CC(C)C=CC=CC=C1C (single isomer, unassigned; more polar) [Example 2, 42-Epi-(tetrazolyl)-rapamycin (more polar isomer)]
Terminal elimination half-life compared to rapamycin [1]: substantially shorter

CCCCN(CCCC)C(=O)CN1C[C@H](c2ccc3c(c2)OCO3)[C@@H](C(=O)O)[C@@H]1c1ccc(OC)cc1.Cl [ABT-627, atrasentan]
Amount released from coupon ([3]; in absence of zotarolimus): 50%
Amount released from coupon ([3]; in presence of zotarolimus): less than 10%
LogP Values [4]: 3.4

COc1ccccc1OCCNCC(O)COc1cccc2[nH]c3ccccc3c12 (stereo not drawn) [Carvedilol]
LogP Values [4]: 1.97

C#C[C@]1(O)CC[C@H]2[C@@H]3CCC4=Cc5oncc5C[C@]4(C)[C@H]3CC[C@@]21C [Danazol]
LogP Values [4]: 4.5

C[C@@H]1C[C@H]2[C@@H]3CCC4=CC(=O)C=C[C@]4(C)[C@@]3(F)[C@@H](O)C[C@]2(C)[C@@]1(O)C(=O)CO [Dexamethasone]
Degradation in ETO sterilization environment ([5]; dexamethasone-only coating): degraded
Degradation in ETO sterilization environment ([5]; loaded in combination with zotarolimus, 1-to-1 ratio): did not degrade
Aqueous solubility, rank order [6]: increasing order: paclitaxel, zotarolimus, rapamycin, and dexamethasone (crystalline)
Amount remaining on coupon ([3]; coupon containing zotarolimus): ~70%
Amount remaining on coupon ([3]; no zotarolimus present): 25%
LogP Values [4]: ~1.9-2.2

OCCN(CCO)c1nc(N2CCCCC2)c2nc(N(CCO)CCO)nc(N3CCCCC3)c2n1 [Dipyridamole]
Amount released from coupon ([3]; in absence of zotarolimus): ~90%
Amount released from coupon ([3]; in presence of zotarolimus): about 52%

COC1CC2CCC(C)C(O)(O2)C(=O)C(=O)N2CCCCC2C(=O)OC(C(C)CC2CCC(n3ccc(=O)cc3)C(OC)C2)CC(=O)C(C)C=C(C)C(O)C(OC)C(=O)C(C)CC(C)C=CC=CC=C1C (stereo not drawn) [Example 4-pyridone, 40-epi-N-[4′-pyridone]-rapamycin]
t1/2 [1]: 13.3 h
IC50 [2]: 0.43 ± 0.2 nM

CC(C)OC(=O)C(C)(C)Oc1ccc(C(=O)c2ccc(Cl)cc2)cc1 [Fenofibrate]
LogP Values [4]: >4.5

CCCCC/C=C\C/C=C\CCCCCCCC(=O)O [Linoleic acid]
LogP Values [4]: >6

CC/C=C\C/C=C\C/C=C\CCCCCCCC(=O)O [Linolenic acid]
LogP Values [4]: >6

CCCCCCCC/C=C\CCCCCCCC(=O)O [Oleic acid]
LogP Values [4]: >6

CC(=O)O[C@H]1C(=O)[C@@]2(C)[C@H]([C@H](OC(=O)c3ccccc3)[C@]3(O)C[C@H](OC(=O)[C@H](O)[C@@H](NC(=O)c4ccccc4)c4ccccc4)C(C)=C1C3(C)C)[C@]1(OC(C)=O)CO[C@@H]1C[C@@H]2O [Paclitaxel]
Aqueous solubility, rank order [6]: increasing order: paclitaxel, zotarolimus, rapamycin, and dexamethasone (crystalline)
Transfer coefficient, rank order [7]: zotarolimus>>paclitaxel>>rapamycin>dexamethasone

O=C(Oc1ccccc1)c1ccccc1O [Phenyl salicylate]
LogP Values [4]: 4.1

CC(C)(Sc1cc(C(C)(C)C)c(O)c(C(C)(C)C)c1)Sc1cc(C(C)(C)C)c(O)c(C(C)(C)C)c1 [Probucol]
LogP Values [4]: >8

CC(=O)[C@H]1CC[C@H]2[C@@H]3CCC4=CC(=O)CC[C@]4(C)[C@H]3CC[C@]12C [Progesterone]
LogP Values [4]: 3.2

CO[C@H]1C[C@@H]2CC[C@@H](C)[C@@](O)(O2)C(=O)C(=O)N2CCCC[C@H]2C(=O)O[C@H]([C@H](C)C[C@@H]2CC[C@@H](O)[C@H](OC)C2)CC(=O)[C@H](C)/C=C(\C)[C@@H](O)[C@@H](OC)C(=O)[C@H](C)C[C@H](C)/C=C/C=C/C=C/1C [Rapamycin]
Aqueous solubility, rank order [6]: increasing order: paclitaxel, zotarolimus, rapamycin, and dexamethasone (crystalline)
IC50 ([2]; Homo sapiens, Lymphocyte): 0.91 ± 0.36 nM
Transfer coefficient, rank order [7]: zotarolimus>>paclitaxel>>rapamycin>dexamethasone
Lipophilicity rank among DES drugs tested [8]: the most lipophilic compounds in the group tested
LogP Values [4]: >4.5

CCCCCCCCCCCCCCCCCC(=O)O [Stearic acid]
LogP Values [4]: >6

C=CC[C@@H]1/C=C(\C)C[C@H](C)C[C@H](OC)[C@H]2O[C@@](O)(C(=O)C(=O)N3CCCC[C@H]3C(=O)O[C@H](/C(C)=C/[C@@H]3CC[C@@H](O)[C@H](OC)C3)[C@H](C)[C@@H](O)CC1=O)[C@H](C)C[C@@H]2OC [Tacrolimus]
LogP Values [4]: >4.5

CC[C@]1(O)C[C@@H]2CN(CCc3c([nH]c4ccccc34)[C@@](C(=O)OC)(c3cc4c(cc3OC)N(C)[C@H]3[C@@](O)(C(=O)OC)[C@H](OC(C)=O)[C@]5(CC)C=CCN6CC[C@]43[C@@H]65)C2)C1 [Vinblastine]
LogP Values [4]: 3.6

CC[C@]1(O)C[C@H]2CN(CCc3c([nH]c4ccccc34)[C@@](C(=O)OC)(c3cc4c(cc3OC)N(C=O)[C@H]3[C@@](O)(C(=O)OC)[C@H](OC(C)=O)[C@]5(CC)C=CCN6CC[C@]43[C@@H]65)C2)C1 [Vincristine]
LogP Values [4]: 2.6

CC[C@]1(O)C[C@@H]2CN(CCc3c([nH]c4ccccc34)[C@@](C(=O)OC)(c3cc4c(cc3OC)N(C)[C@H]3[C@@](O)(C(N)=O)[C@H](O)[C@]5(CC)C=CCN6CC[C@]43[C@@H]65)C2)C1 [Vindesine]
LogP Values [4]: 1.3

CO[C@H]1C[C@@H]2CC[C@@H](C)[C@@](O)(O2)C(=O)C(=O)N2CCCC[C@H]2C(=O)O[C@H]([C@H](C)C[C@@H]2CC[C@H](n3cnnn3)[C@H](OC)C2)CC(=O)[C@H](C)/C=C(\C)[C@@H](O)[C@@H](OC)C(=O)[C@H](C)C[C@H](C)/C=C/C=C/C=C/1C [Zotarolimus]
Aqueous solubility, rank order [6]: increasing order: paclitaxel, zotarolimus, rapamycin, and dexamethasone (crystalline)
Solubility in water compared with amorphous rapamycin ([6]; shake-flask): much less soluble in water than amorphous rapamycin
Concentration in arterial tissue adjacent to stent placement ([9]; all periods out to 28 days): substantial concentrations
Concentration in distal, unstented and subjacent myocardium and unstented and distal coronary arteries ([9]; throughout 28 days): therapeutically significant concentrations
Transfer coefficient, rank order [7]: zotarolimus>>paclitaxel>>rapamycin>dexamethasone
Lipophilicity rank among DES drugs tested [8]: the most lipophilic of all DES drugs tested
LogP Values [4]: >4.5
